The assay deals with HIV-1 strain NL4-3. In words: p24 antigen inhibition in HIV-1 infected HUT-78 cells. In kind it is cell-based. Conditions: for Expected % inhibition: assuming additive effect; for Observed % inhibition: p24, day 9. As to the method: Control cells were pretreated in 3.5 ml maintenance media under the same conditions.
The tubes were centrifuged at 1200 rpm for 5 minutes to pellet the cells and each pellet was resuspended in 1 ml of stock HIV-1 strain NL4-3 (obtained from AIDS Research and Reference Reagent Program, Rockville, Md.) to obtain an MOI (multiplicity of infection) of about 0.05. The cells were incubated at 37° C. for 1 hour to allow viral adsorption to occur. […] These cells were centrifuged as above, the resulting pellets were resuspended in 1 ml of media and incubated for 1 hour at 37° C.
AZT (Burroughs Wellcome Co.) thawed from sterile stock aliquots was serially diluted in media and dispensed at a volume of 100 μl per well of microtiter plate for the cytotoxicity control wells, compound color control wells and the test wells. Treated and untreated infected and uninfected cells were dispensed at a volume of 100 μl per well. […]
The plates were incubated by 37° C. in 5% CO2.
On the 9th day, 20 μl supernatant was removed from above settled cells in the Test, Virus Control and Cell Control wells. The supernatant was assayed for the presence of p24 antigen using a Coulter Corporation p24 Antigen Test Kit in accordance with the manufacturter's directions.
% Observed Inhibition=[(VC-Test)/(VC)]×100
where VC is the mean p24 of the Virus Control wells; and
Test in the mean p24 of the Test wells.
% Expected Inhibition=X+Y(100-X)
Y is observed % inhibition of AZT.

For the compound `CC(=O)N[C@H](CCCNC(=N)N)C(=O)N[C@H](CCCNC(=N)N)C(=O)N[C@H](CCCNC(=N)N)C(=O)N[C@H](CCCNC(=N)N)C(=O)N[C@H](CCCNC(=N)N)C(=O)N[C@H](CCCNC(=N)N)C(=O)N[C@H](CCCNC(=N)N)C(=O)N[C@H](CCCNC(=N)N)C(=O)N[C@H](CCCNC(=N)N)C(N)=O` [4C, acetyl-[D-Arg]9 -NH2], the Expected % inhibition by setting is: (AZT 0 nM, 4C 0.001 μM) -412.7%; (AZT 0 nM, 4C 0.003 μM) -256.2%; (AZT 0 nM, 4C 0.01 μM) -22.8%; (AZT 0 nM, 4C 0.03 μM) 5.9%; (AZT 0 nM, 4C 0.1 μM) -177.0%; (AZT 0 nM, 4C 0.3 μM) 25.5%. For the same compound, the Expected % inhibition worked out at 21.9% (AZT 0 nM, 4C 10 μM) and 26.5% (AZT 0 nM, 4C 30 μM). Further, the Observed % inhibition runs as follows: (AZT 0 nM, 4C 0.001 μM) -412.7%; (AZT 0 nM, 4C 0.003 μM) -256.2%; (AZT 0 nM, 4C 0.01 μM) -22.8%; (AZT 0 nM, 4C 0.03 μM) 5.9%; (AZT 0 nM, 4C 0.1 μM) -177.0%; (AZT 0 nM, 4C 0.3 μM) 25.5%. In addition, the Observed % inhibition is, setting by setting: (AZT 0 nM, 4C 10 μM) 21.9%; (AZT 0 nM, 4C 30 μM) 26.5%.
Take `Cc1cn([C@H]2C[C@H](N=[N+]=[N-])[C@@H](CO)O2)c(=O)[nH]c1=O` [AZT, azidothymidine, reference compound]: the Expected % inhibition (AZT 10 nM, 4C 0 μM) was -406.1%; the Expected % inhibition (AZT 30 nM, 4C 0 μM) was -437.4%; the Expected % inhibition (AZT 100 nM, 4C 0 μM) is reported as -14.2%; the Expected % inhibition (AZT 300 nM, 4C 0 μM) is -9.8%; the Expected % inhibition (AZT 1000 nM, 4C 0 μM) is recorded as -7.7%. For the same compound, the Observed % inhibition reads like this: (AZT 10 nM, 4C 0 μM) -406.1%; (AZT 30 nM, 4C 0 μM) -437.4%; (AZT 100 nM, 4C 0 μM) -14.2%; (AZT 300 nM, 4C 0 μM) -9.8%; (AZT 1000 nM, 4C 0 μM) -7.7%.

These data come from patent publication US5674849A, “Anti-viral compositions” (priority 1995, dated 1997).
